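Protocol summary: plate cells (96-well), add compound at 5 concentrations, incubate 48 h, interpolate endpoints linearly. TGI marks complete inhibition of growth.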 Some results are limits rather than exact numbers.

The test system of the first assay is SK-MEL-5 melanoma. Put plainly: NCI anticancer screen, dose series, 48 h.
The compound `CC(C)[O-].CC(C)[O-].O=c1cccccc1[O-].O=c1cccccc1[O-].[Ti+4]` returned a TGI of 69.8 µM.
The same measure, in the same setting: then `COc1cc(CNc2nc3ccc(C(F)(F)F)cc3nc2-c2ccccc2)cc(OC)c1OC`, with 87 µM; and `COc1ccccc1NC(=O)/C(=C/c1ccccc1)C(C)=O`, with 62 µM; and `CC1=NN(C(=O)c2ccncc2)C(=O)C1N=Nc1ccc(F)cc1` (stereo not drawn), with greater than 100 µM.
`CCOC(OC1=C(C#N)CCCC1)C(CC)[Se]c1ccccc1` (stereo not drawn): the TGI came to 33.5 µM.
On the same count and under the same terms, to `C=C1C(=O)C23C(O)C1CC[C@H]2C12CCCC(C)(COC(C)=O)[C@H]1[C@H](O)[C@]3(O)OC2` (stereo partly drawn) belongs 3.26 µM; to `C=CCNC(=O)N(CCC)CCCC(NC(C)=O)C(=O)NCc1ccccc1` (stereo not drawn), greater than 100 µM; to `Cc1ccccc1/C=C/C(=O)c1ccccc1`, greater than 10 µM.
The compound `COC(=O)C1C(=O)N(CCc2c[nH]c3ccccc23)C[C@@H]2CCC(=O)C[C@H]12` (stereo partly drawn) gave a TGI greater than 100 µM.
Compound `C[C@]12C/C(=C/O)C(=O)C(O)=C1CC[C@@H]1C2CC[C@@]2(C)C1CC[C@@H]2O` (stereo partly drawn) gave a TGI of 42.9 µM.
Still for that read-out and setting: to `CCCCCCCCCCCCCCCCCCOCC(COCCOCC[N+]1(CCCCCC(=O)[O-])CCCC1)Oc1ncccn1` (stereo not drawn) belongs 15.2 µM.
For the compound `CC(C)(C)NCC(COc1ccc([N+](=O)[O-])cc1)OP(c1ccccc1)c1ccccc1` (stereo not drawn), the TGI stood at 37.3 µM.
In turn, `COc1cc(C2c3cc4c(cc3[C@@H](Nc3ccc5c(c3)OCCO5)C3COC(=O)[C@H]23)OCO4)cc(OC)c1O` (stereo partly drawn) came in with a TGI of 1.75 µM.
Still for that read-out and setting: to `Cn1c(=O)nc2n(-c3ccc(Cl)c(C(F)(F)F)c3)c3ccccc3nc-2c1=O` belongs 26.9 µM.

The next assay concerns M19-MEL melanoma. Put plainly: NCI anticancer screen, dose series, 48 h.
The compound `CC(C)(C)OC(=O)NC1CCCC1=O` (stereo not drawn) yielded a TGI greater than 100 µM.
The same measure, in the same setting: to `O=C1[C@H]2ON(c3ccccc3)C(c3ccco3)[C@H]2C(=O)N1c1ccc(Cc2ccc(N3C(=O)[C@@H]4ON(c5ccccc5)C(c5ccco5)[C@@H]4C3=O)cc2)cc1` (stereo partly drawn) belongs greater than 100 µM; to `Cc1cccc(C)c1N1C(=O)C(=O)C(c2nc3ccccc3s2)/C(=N/NC(=O)NN)C1=O` (stereo not drawn), greater than 100 µM.
In turn, `CCCCCCC(C)CCCCCCCCCCC(=O)O` (stereo not drawn) showed a TGI greater than 100 µM.
Same read-out and setting: to `COc1ccc2[nH]c(-c3ccc(O)cc3)cc(=O)c2c1` belongs greater than 86 µM.
The same measure, in the same setting: to `COc1cc(CNc2nc3ccc(C(F)(F)F)cc3nc2-c2ccccc2)cc(OC)c1OC` belongs greater than 100 µM; to `COc1ccccc1NC(=O)/C(=C/c1ccccc1)C(C)=O`, greater than 100 µM.
The same measure, in the same setting: to `O=C(CC1(O)C(=O)Nc2c(Cl)ccc(Cl)c21)c1ccc(Cl)cc1Cl` (stereo not drawn) belongs 20.1 µM.
In turn, `CC1=NN(C(=O)c2ccncc2)C(=O)C1N=Nc1ccc(F)cc1` (stereo not drawn) came in with a TGI greater than 100 µM.
The same measure, in the same setting: then `CCOC(OC1=C(C#N)CCCC1)C(CC)[Se]c1ccccc1` (stereo not drawn), with 48.7 µM.
Still for that read-out and setting: to `C=C1C2Oc3ccccc3C1N(c1ccccc1)O2` (stereo not drawn) belongs greater than 100 µM; to `C=C1C(=O)C23C(O)C1CC[C@H]2C12CCCC(C)(COC(C)=O)[C@H]1[C@H](O)[C@]3(O)OC2` (stereo partly drawn), 4.69 µM.
On the same count and under the same terms, then `O=S1CSSC1`, with 14.4 µM; and `C=CCNC(=O)N(CCC)CCCC(NC(C)=O)C(=O)NCc1ccccc1` (stereo not drawn), with greater than 100 µM; and `CCOC(=O)C1(Cc2ccc3ccccc3c2)CCCCC(=O)N1` (stereo not drawn), with greater than 100 µM.
As for `Cc1ccccc1/C=C/C(=O)c1ccccc1`, the TGI amounted to 61 µM.
On the same count and under the same terms, then `COC(=O)C1C(=O)N(CCc2c[nH]c3ccccc23)C[C@@H]2CCC(=O)C[C@H]12` (stereo partly drawn), with greater than 100 µM; and `C[C@]12C/C(=C/O)C(=O)C(O)=C1CC[C@@H]1C2CC[C@@]2(C)C1CC[C@@H]2O` (stereo partly drawn), with 45.3 µM.
Compound `Cc1c(C)c(CC(=O)N2CC2)c(C)c(C)c1CC(=O)N1CC1` displayed a TGI of 27.4 µM.
On the same count and under the same terms, to `CCCCCCCCCCCCCCCCCCOCC(COCCOCC[N+]1(CCCCCC(=O)[O-])CCCC1)Oc1ncccn1` (stereo not drawn) belongs 1.33 µM; to `CC(C)(C)NCC(COc1ccc([N+](=O)[O-])cc1)OP(c1ccccc1)c1ccccc1` (stereo not drawn), greater than 100 µM.
Same read-out and setting: then `COc1cc(C2c3cc4c(cc3[C@@H](Nc3ccc5c(c3)OCCO5)C3COC(=O)[C@H]23)OCO4)cc(OC)c1O` (stereo partly drawn), with greater than 35.9 µM.
Turning to `Cn1c(=O)nc2n(-c3ccc(Cl)c(C(F)(F)F)c3)c3ccccc3nc-2c1=O`, the TGI was found to be 27.8 µM.

Another assay concerns T-47D breast. Put plainly: NCI anticancer screen, dose series, 48 h.
Turning to `COc1ccc2[nH]c(-c3ccc(O)cc3)cc(=O)c2c1`, the TGI stood at 79.6 µM.
Regarding `C=C1C(=O)C23C(O)C1CC[C@H]2C12CCCC(C)(COC(C)=O)[C@H]1[C@H](O)[C@]3(O)OC2` (stereo partly drawn), the TGI worked out at 9.59 µM.
Same read-out and setting: to `Cc1c(C)c(CC(=O)N2CC2)c(C)c(C)c1CC(=O)N1CC1` belongs 80.5 µM; to `CCCCCCCCCCCCCCCCCCOCC(COCCOCC[N+]1(CCCCCC(=O)[O-])CCCC1)Oc1ncccn1` (stereo not drawn), 21.2 µM.

For a further assay, the system named is MDA-MB-435. Put plainly: NCI anticancer screen, dose series, 48 h.
The compound `Cc1c(C)c(CC(=O)N2CC2)c(C)c(C)c1CC(=O)N1CC1` had a TGI of 33.6 µM.
Still for that read-out and setting: then `CCCCCCCCCCCCCCCCCCOCC(COCCOCC[N+]1(CCCCCC(=O)[O-])CCCC1)Oc1ncccn1` (stereo not drawn), with 25 µM.

The test system of another assay is NCI-H522 lung. Put plainly: NCI anticancer screen, dose series, 48 h.
Take `Cc1c2ccncc2c(C)c2c1[nH]c1ccc(O)c(OCC(F)(F)F)c12`: the TGI amounted to 15.9 µM.
The same measure, in the same setting: then `CC(C)(C)OC(=O)NC1CCCC1=O` (stereo not drawn), with greater than 100 µM.
As for `Cc1cccc(C)c1N1C(=O)C(=O)C(c2nc3ccccc3s2)/C(=N/NC(=O)NN)C1=O` (stereo not drawn), the TGI is greater than 100 µM.
On the same count and under the same terms, then `CCCCCCC(C)CCCCCCCCCCC(=O)O` (stereo not drawn), with greater than 100 µM; and `COc1ccc2[nH]c(-c3ccc(O)cc3)cc(=O)c2c1`, with 1.35 µM; and `CC(C)[O-].CC(C)[O-].O=c1cccccc1[O-].O=c1cccccc1[O-].[Ti+4]`, with 62.8 µM.
Still for that read-out and setting: to `COc1cc(CNc2nc3ccc(C(F)(F)F)cc3nc2-c2ccccc2)cc(OC)c1OC` belongs 55.7 µM.
Still for that read-out and setting: then `COc1ccccc1NC(=O)/C(=C/c1ccccc1)C(C)=O`, with 58.2 µM.
As for `CC1=NN(C(=O)c2ccncc2)C(=O)C1N=Nc1ccc(F)cc1` (stereo not drawn), the TGI was greater than 100 µM.
Still for that read-out and setting: to `CCOC(OC1=C(C#N)CCCC1)C(CC)[Se]c1ccccc1` (stereo not drawn) belongs 29 µM.

The record behind these values is PubChem BioAssay (NCI).
